According to publication PMC5889476 (Biochimie Open, 2015):
Substitutions are numbered along the chain they refer to. In names and notes the source's numbering stands.

How the values were obtained:
rFKBP22 (E. coli FKBP22) [1] = biological target: T1, rFKBP22 (E. coli FKBP22) (Escherichia coli, UniProt P0A9L3, V72P); experiment: tryptophan fluorescence quenching titration; assay type: binding
T1 sequence (P0A9L3 1-206 V72P): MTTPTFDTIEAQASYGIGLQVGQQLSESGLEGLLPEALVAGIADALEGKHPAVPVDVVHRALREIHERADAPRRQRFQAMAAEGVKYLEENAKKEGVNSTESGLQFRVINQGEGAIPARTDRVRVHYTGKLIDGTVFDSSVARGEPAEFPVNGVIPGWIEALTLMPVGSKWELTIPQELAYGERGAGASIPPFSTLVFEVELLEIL

rFKBP22 (E. coli FKBP22) [2] = biological target: T2, rFKBP22 (E. coli FKBP22) (Escherichia coli, UniProt P0A9L3, A82P); experiment: tryptophan fluorescence quenching titration; assay type: binding
T2 sequence (P0A9L3 1-206 A82P): T1 sequence (P0A9L3 1-206 V72P) with P72V, A82P

rFKBP22 (E. coli FKBP22) [3] = biological target: T3, rFKBP22 (E. coli FKBP22) (Escherichia coli, UniProt P0A9L3, I65P); experiment: tryptophan fluorescence quenching titration; assay type: binding
T3 sequence (P0A9L3 1-206 I65P): T1 sequence (P0A9L3 1-206 V72P) with I65P, P72V

rFKBP22 (E. coli FKBP22) [4] = biological target: T4, rFKBP22 (E. coli FKBP22) (Escherichia coli, UniProt P0A9L3); experiment: tryptophan fluorescence quenching titration; assay type: binding
T4 sequence (P0A9L3 1-206): T1 sequence (P0A9L3 1-206 V72P) with P72V

cross-linking = biological target: the molecule itself; experiment: cross-linking

Q: For `CO[C@H]1C[C@@H]2CC[C@@H](C)[C@@](O)(O2)C(=O)C(=O)N2CCCC[C@H]2C(=O)O[C@H]([C@H](C)C[C@@H]2CC[C@@H](O)[C@H](OC)C2)CC(=O)[C@H](C)/C=C(\C)[C@@H](O)[C@@H](OC)C(=O)[C@H](C)C[C@H](C)/C=C/C=C/C=C/1C` [rapamycin], which Kd (rFKBP22 (E. coli FKBP22) [1]) is on record?
A: 5.51 ± 0.26 µM

Q: What about the Kd (rFKBP22 (E. coli FKBP22) [2]) of the same molecule?
A: 5.41 ± 0.31 µM

Q: And the Kd (rFKBP22 (E. coli FKBP22) [3])?
A: 5.06 ± 0.38 µM

Q: And the Kd (rFKBP22 (E. coli FKBP22) [4])?
A: 5.43 ± 0.57 µM

B1: V72P, a rFKBP22 variant with a Val to Pro substitution at position 72 in the helix α3 (enzyme, Escherichia coli, UniProt P0A9L3 1-206, looked up)
chain: T1 sequence (P0A9L3 1-206 V72P)
Q: B1 was tested. Which “stoichiometry N” value (cross-linking) did it give?
A: 2

B2: A82P, a rFKBP22 derivative harboring an Ala to Pro change at position 82 in the helix α3 (enzyme, Escherichia coli, UniProt P0A9L3 1-206, looked up)
chain: T1 sequence (P0A9L3 1-206 V72P) with P72V, A82P
Q: For B2, which “stoichiometry N” value (cross-linking) is on record?
A: 2
